Test results: US20240197702A1, “ANTISEPTIC-ANTIBIOTIC GUMBOS EFFECTIVE AGAINST GRAM-NEGATIVE PATHOGENS” (priority 2020, published 2024)
Structures can show the parent of a compound that is named as a salt.

Experiments:
[1] = MTT cytotoxicity assay of octenidine/carbenicillin GUMBOS; type: cell-based; details: human
Protocol: (§1) Cytotoxicity assay: To determine cell viability, a colorimetric MTT dye assay (Promega Corp., Madison, WI, USA) was used, employing the manufacturer's instructions, as an indicator of cytotoxicity of GUMBOS towards healthy (HeLa) cells. Hela cells (ATCC CCL-2) grown in DMEM-reduced serum supplemented with 10% FBS were plated at a density of 1% 10^5 cells/mL (10^4 cells/well) in 96-well plates. Concentrations of therapeutic agents up to 500 μM (1% MeOH or DMSO) were doubly diluted in cell culture media and transferred to seeded cells. Cells were incubated for 15 min and 60 min at 37° C. in a 5% CO2 atmosphere. Cells treated with medium alone served as a negative control. At the end of the incubation period, 15 μL of MTT was added to each well and incubation continued for another hour. Absorbance was measured at 570 nm in a microplate spectrophotometer. All experiments were performed in quadruplicate. Cell viability as a percentage was determined as the ratio between treated cells and untreated (control) cells (taken as 100%).

HeLa cells = test: as above; type: cell-based; details: HeLa; for Relative toxicity to cervical cells (in words): after 15 min of incubation
Protocol: as §1

[2] = system: N. gonorrhoeae ATCC 49226; test: Kirby-Bauer disc diffusion against N. gonorrhoeae ATCC 49226; type: cell-based, Neisseria gonorrhoeae; details: for Zone size, mm (±SD): ATCC 49226, disc diffusion, 20-24 h
Protocol: (§2) Antimicrobial susceptibility testing: Kirby-Bauer disc diffusion susceptibility tests were used to determine zones of inhibition (ZOIs) for N. gonorrhoeae (ATCC 49226) and three clinical isolates obtained from Louisiana State University Health Sciences Center New Orleans HIV Outpatient Clinic. Kirby-Bauer disc diffusion is one of the CDC's preferred methods of testing the susceptibility of N. gonorrhoeae. Testing was performed according to CLSI recommended procedures. In this susceptibility test, 6 mm diameter blank paper discs were impregnated with known quantities of antimicrobial drug followed by evaporation of solvent; however, ceftriaxone, azithromycin and doxycycline antimicrobial susceptibility discs were purchased from Thermo Fisher Scientific. Impregnated discs were placed onto prepared nutrient agar plates that were inoculated with N. gonorrhoeae to give a confluent lawn of growth. Suspensions of these various strains were prepared in accordance with a 1.0 McFarland standard. Inoculated agar plates were incubated for 20-24 h at 37° C. in a 5% CO2 atmosphere.
(§3) Blank discs were loaded with 50 nmol of GUMBOS, respective constituent compounds and equivalent stoichiometric unreacted mixtures of octenidine and carbenicillin that are equimolar to the purchased ceftriaxone discs (Oxoid™, Thermo Fisher). After 20-24 h incubation, diameters of ZOIs were measured using a ruler. […] Antibacterial activity was improved for octenidine when chloride ions were exchanged for the antibiotic. […] This effect was not seen, however, for an unreacted mixture of the two drugs for either N. gonorrhoeae (ATCC 49226) or clinical isolates. The ZOIs of octenidine/carbenicillin were also larger than or equal to azithromycin and doxycycline ZOIs for N. gonorrhoeae (ATCC 49226). […] This is significant as resistance rates for azithromycin have increased worldwide. Among 57 countries reporting on azithromycin susceptibility, 28 (49%) reported>5% resistance. […] Ceftriaxone produced large ZOIs as the clinical population still remains susceptible to it in the USA (only 0.2% of isolates had elevated resistance to ceftriaxone in 2017).

[3] = MTT cytotoxicity assay of ceftriaxone-based GUMBOS; type: cell-based; details: human, HeLa cells, read-out: Acute cytotoxicity (IC50)
Protocol: Cytotoxicity Assay of GUMBOS: Cytotoxicity of GUMBOS, unreacted mixtures, and antiseptics towards healthy cells were evaluated using the MTT assay, a colorimetric dye assay, according to manufacturer's instructions. […] Stock solutions of antimicrobial agents in cell medium (1% MeOH) were diluted to a known working concentration, doubly diluted, and transferred to seeded cells. […] Cells treated with only DMEM were used as a negative control. After incubation, 15 μL of MTT were added to each well and cells were further incubated for an hour. Sodium dodecyl sulfate dimethylformamide solution was added after this additional incubation time in order to dissolve the purple formazan crystals. Cell viability was quantified at 570 nm using a microplate spectrophotometer (Eppendorf PlateReader AF2200, Hauppauge, NY). Cell viability as a percentage was determined as the ratio between treated cells and untreated (control) cells taken as 100%.

[4] = system: clinical isolates of N. gonorrhoeae; test: MIC by micro-broth dilution against N. gonorrhoeae clinical isolates; type: cell-based, Neisseria gonorrhoeae; details: Neisseria gonorrhoeae
Protocol: (§4) Minimum Inhibitory Concentrations of GUMBOS against N. gonorrhoeae: Clinical isolates of N. gonorrhoeae and N. gonorrhoeae ATCC 49226 were obtained from Louisiana State University Health Sciences Center New Orleans HIV Outpatient Clinic. Minimum inhibitory concentrations (MICs) of GUMBOS, constituent parent drugs, azithromycin, and unreacted mixtures were determined using micro-broth dilution in 96-well plates. […] Stock solutions were diluted to a known working concentration and 100 μL were added to the first row of the plate. For susceptibility testing of N. gonorrhoeae, media was prepared according to methods reported by Wade and […]. Euro. Microbiol. Soc. Microbiol. […] This liquid medium allowed dense growth of N. gonorrhoeae for use in broth dilution tests. Protein-free liquid media (100 μL) were added to each well and two-fold dilutions were performed. The antibiotic containing wells were inoculated with an equal volume of bacterial inoculum matching a 0.5 McFarland standard. […] The lowest concentration of antibiotic that prevents growth is the MIC.

[5] = system: N. gonorrhoeae clinical isolates; test: Kirby-Bauer disc diffusion against N. gonorrhoeae clinical isolates; type: cell-based, Neisseria gonorrhoeae; details: three clinical isolates, 20-24 h
Protocol: as §2, §3

[6] = system: N. gonorrhoeae ATCC 49226; test: MIC by micro-broth dilution against N. gonorrhoeae ATCC 49226; type: cell-based, Neisseria gonorrhoeae; details: Neisseria gonorrhoeae, ATCC49226; ATCC 49226, micro-broth dilution, 20-24 hours
Protocol: as §4

[7] = Parallel Artificial Membrane Permeability Assay (PAMPA); type: in vitro ADME
Protocol: Predictive intestinal permeability: PAMPA was employed as an in vitro model of passive, transcellular permeation. In this technique, a 96-well microtiter plate is used as a donor plate and a membrane/acceptor compartment coated with structured tri-layers of phospholipids is placed on top; this configuration is referred to as ‘sandwiched’. Known concentrations of octenidine/carbenicillin (100 μM in 1×PBS, 0.25% DMSO) were added to the donor plate while only buffer was placed in the acceptor plate. The assay was incubated for 5 h at room temperature and the acceptor plate was measured using a UV/Vis spectroscopy plate reader (Eppendorf PlateReader AF2200). Permeability coefficients (Pe) were calculated based on initial concentration in donor well (C0), concentration in donor well at 5 h (CD), concentration in acceptor well at 5 h (CA), volumes of donor (VD) and acceptor wells (VA), well filter area (A, 0.3 cm^2) and incubation time (t, 18000 s), as calculated using the relationship in Equation 1.

[8] = according to Hansch et al (1995); cited from earlier work

Row | Structure (SMILES) | IC50 at 15 min [1] | IC50 at 60 min [1] | Relative toxicity to cervical cells (in words) (HeLa cells) | Zone size, mm (±SD) [2] | IC50 at 15 min ([3]; 15 min) | IC50 at 60 min ([3]; 60 min) | MIC [4] | Zone size, mm (±SD) [5] | MIC [6] | Cytotoxicity towards cervical cells (in words) (HeLa cells) | Permeability class [7] | Mean effective Pe (permeability coefficient) ([7]; 100 μM in 1×PBS, 0.25% DMSO, 5 h, room temperature) | Combination effect on antibacterial activity ([2]; N. gonorrhoeae (ATCC 49226) and clinical isolates, disc diffusion) | Antibacterial activity relative to azithromycin ([2]; disc diffusion ZOIs) | Log P [8]
1 | CCCCCCCCN=c1ccn(CCCCCCCCCCn2ccc(=NCCCCCCCC)cc2)cc1 [Octenidine dihydrochloride, octenidine dihydrochloride] | 37.4 ± 2.8 µg/mL | 16.1 ± 0.7 µg/mL | most toxic | 9 ± 1 mm | 55 ± 1.29 µM | 25.9 ± 1.17 µM | 4.7 ± 1.8 µM | 9 ± 0.3 mm | 3.1 µM |  |  |  |  |  | 
2 | CC1(C)S[C@@H]2[C@H](NC(=O)C(C(=O)[O-])c3ccccc3)C(=O)N2[C@H]1C(=O)[O-].CCCCCCCCNc1cc[n+](CCCCCCCCCC[n+]2ccc(NCCCCCCCC)cc2)cc1 [[OCT][CAR], octenidine/carbenicillin] |  |  | lower toxicity than the stoichiometric, unreacted mixture | 40 ± 0.6 mm |  |  |  | 37 ± 4 mm |  | non-toxic towards cervical cells | high permeability (Pe values that are greater than 1.5% 10 cm/s are defined as high permeability) | 3.78×10^−6 (±0.85) cm/s | additive effect | bioequivalent to azithromycin | 
3 | [H]/N=C(\N/C(=N/[H])NCCCCCCNC(=N)NC(=N)Nc1ccc(Cl)cc1)Nc1ccc(Cl)cc1 [chlorhexidine] |  |  |  |  |  |  |  |  |  |  |  |  |  |  | 0.08
